Measured values taken from patent US11805798B2, “Process for increasing the stability of a composition comprising polyunsaturated omega-3 fatty acids” (Evonik Operations GmbH, priority 2014, dated 2023).
Where “and” joins values, the source holds several entries; their conditions need not be identical. Equal entries are not always repeated.

Tests used:
Format in all cases: physicochemical
[1] = Peroxide Value (PV), primary oxidation products, Ph. Eur. 2.5.5; stability on storage
Experimental: An exemplary procedure for determining the Peroxide Value (PV) of a sample is performed as follows:
Reagents and solution: • 1. Acetic Acid—chloroform solution (7.2 ml Acetic Acid and 4.8 ml Chloroform). • 2. Saturated Potassium Iodide solution. Store in the dark. • 3. Sodium thiosulfate solution, 0.1N. Commercially available • 4. 1% Starch solution. Commercially available. • 5. Distilled or deionized water.
Conduct a blank determination of the reagents • 1. Weigh 2.00 (±0.02) g of sample into a 100 ml glass stoppered Erlenmeyer flask. Record weight to the nearest 0.01 g. • 2. By graduated cylinder, odd 12 ml of the acetic acid chloroform solution. • 3. Swirl the flask until the sample is completely dissolved (careful warming on a hot plate may be necessary). • 4. Using 1 ml Mohr pipette, add 0.2 ml of saturated potassium iodide solution • 5. Stopper the flask and swirl the contents of the flask for exactly one minute. • 6. Immediately add by graduated cylinder, 12 ml of either distilled or deionized water, stopper and stake vigorously to liberate the iodine from the chloroform layer. • 7. Fill the burette with 0.1 N sodium thiosulfate. • 8. If the starting color of the solution is deep red orange, titrate slowly with mixing until the color lightens. If the solution is initially a light amber color, go to step 9. • 9. Using a dispensing device: add 1 ml of starch solution as indicator. • 10. Titrate until the blue gray color disappears in the aqueous (upper layer). • 11. Accurately record the mis of titrant used to two decimal places.
Calculation: • S=titration of sample • B=titration of blank • Peroxide value=(S−B)*N thiosulfate*1000/weight of sample
(§1) Primary oxidation products (hydroperoxides at double bonds) were quantified by determining the Peroxide Value (PV) according to Ph. Eur 2.5.5 (01/2008.20505). Secondary oxidation products (carbonyl compounds) were quantified by determining the Anisidine Value (AV) according to Ph, Eur. 2.5.36 (01/2008:20536).
(§2) About 50 g each of the liquid ethyl esters EPA-OEt and DHA-OEt used in experiments 1 and 2 as well as of the liquid fatty acids EPA and DHA obtained in experiments 1 and 2 were filled into 250 ml Schott Duran bottles with an inner diameter of about 60 mm (filling height about 20 mm). About 50 g each of the solid lysine-salts EPA-Lys and DHA-Lys obtained in experiments 3 and 4 were filled into 250 ml polyethylene wide-neck bottles (55 mm*55 mm*80 mm) (filling height about 60 mm-70 mm).
(§3) All of the bottles were placed together with opened lids in a drying oven with an opened ventilation valve at 50° C. and stored under these conditions for 26 days. Results of the analyses performed subsequently as well as the results obtained for the sodium-salts which were stored at room temperature (cf. experiments 5 and 6) are summarized in the following table (Table 1).

[2] = Oligomer content by gel-chromatography (GPC), RI-detector; stability on storage
Experimental: Oligomeric PUFA constituents as well as their derivatives (collectively referred to as oligomer content) were quantified by gel-chromatographic means (GPC, styroldivinylbenzene-phase with tetrahydrofuran containing trifluoroacetic acid used as eluent). A refractive index (RI) detector was used for detection. Due to the fact that specific response factors of the constituents of the samples wore unknown, proportions were calculated based upon fractional proportions of the total area of chromatograms.
as §2, §3

[3] = Appearance after storage at room temperature; conditions: after storage for 3 months at room temperature; initially faintly beige powder
Experimental: The homogenous solution obtained was spray dried with a Büchi B190 laboratory-spray drier with an inlet temperature of 140° C. and an outlet temperature of about 80° C. 28.6 g of a faintly beige powder were obtained.
The homogenous solution obtained was spray dried with a Büchi B190 laboratory-spray drier writ an inlet temperature of 140° C. and an outlet temperature of about 80° C. 27.5 g of a faintly beige powder were obtained. […] Oligomer content was determined as 3.4 area-% (gel-chromatography. RI-detector).

[4] = Anisidine Value (AV), secondary oxidation products, Ph. Eur. 2.5.36; stability on storage
Experimental: An exemplary procedure for determining the Anisidine Value (AV) of a sample is performed as follows
The anisidine value is defined as 100 times the optical density measured in a 1 cm cell of a solution containing 1 g of the substance to be examined in 100 ml of a mixture of solvents and reagents according to the following method carry out the operations as rapidly as possible avoiding exposure to actinic light.
Test solution (a); Dissolve 0.500 g of the substance to be examined in trimethylpentane and dilute to 25.0 ml with the same solvent.
Test solution (b): To 5.0 ml of test solution (a) add 1.0 ml of a 2.5 g/t solution of p-anisidine in glacial acetic acid, shake and store protected from light.
Reference solution: To 5.0 ml of trimethylpentane add 1.0 ml of a 2.5 g/l solution of p-anisidine in glacial acetic acid, shake and store protected from light. Measure the absorbance of test solution (a) at the maximum at 350 nm using trimethylpentane as the compensation liquid. Measure the absorbance of test solution (b) at 350 nm exactly 10 min after its preparation, using the reference solution as the compensation liquid. Calculate the anisidine value (AV) from the expression. AV=(25*(1.2*A1−A2)/m • A1=absorbance of test solution (b) at 350 nm, • A2=absorbance of test solution (a) at 350 nm, • m=mass of the substance to be examined in test solution (a), in grams.
as §1, §2, §3

[5] = after 3 months at room temperature
[6] = t = 26 days, open bottles exposed to air, drying oven at 50° C.

| Compound | Peroxide Value (PV) [1, 5] | Oligomer content [2, 5] | Appearance after storage [3] | Anisidine Value (AV) [4, 5] | Peroxide Value (PV) ([1]; t = 0, before storage) | Peroxide Value (PV) [1, 6] | Oligomer content [2, 6] | Anisidine Value (AV) ([4]; t = 0, before storage) | Anisidine Value (AV) [4, 6] | Oligomer content ([2]; t = 0, before storage) |
| --- | --- | --- | --- | --- | --- | --- | --- | --- | --- | --- |
| Eicosapentaenoic Acid-Sodium Salt [EPA-Na] | 5.0 mmol/kg and 5.0 ** mmol/kg | 2.4 area-% and 2.4 ** area-% | grey-coloured appearance | 41.1 A/g and 41.1 ** A/g | – | – | – | – | – | – |
| Eicosapentaenoic Acid-L-Lysine [EPA-Lys] | – | – | – | – | 1.3 mmol/kg | <1.0 mmol/kg | 0.6 area-% | 2.1 A/g | <1.0 A/g | – |
| CC/C=C\C/C=C\C/C=C\C/C=C\C/C=C\CCCC(=O)O [EPA-OH, all-cis-5,8,11,14,17-eicosapentaenoic acid] | – | – | – | – | 8.6 mmol/kg | 14.7 mmol/kg | 20.6 area-% | 3.1 A/g | 424 A/g | – |
| Docosahexaenoic Acid-Sodium Salt [DHA-Na] | 6.9 mmol/kg and 6.9 ** mmol/kg | 3.4 area-% and 3.4 ** area-% | grey-coloured appearance | 77.9 A/g and 77.9 ** A/g | – | – | – | – | – | – |
| Docosahexaenoic Acid-L-Lysine Salt [DHA-Lys] | – | – | – | – | 1.7 mmol/kg | <1.0 mmol/kg | 0.9 area-% | 3.1 A/g | <1.0 A/g | – |
| CC/C=C\C/C=C\C/C=C\C/C=C\C/C=C\C/C=C\CCC(=O)OCC [DHA-OEt, docosahexaenoic acid ethyl ester] | – | – | – | – | 26.1 mmol/kg | 282.0 mmol/kg | 32.6 area-% | 16.0 A/g | 1732 A/g | 0.4 area-% |
